# Laboratory results: paper PMC6941952, “A homogeneous bioluminescent immunoassay to probe cellular signaling pathway regulation” (Communications Biology, 2020)
# System: phospho-IκBα (Ser32)
# Test: NanoBiT cell-based immunoassay, phosphorylated IκBα in MCF-7 cells
# Set-up: species or system human
# Settings: plate #2; for Subtract reagent background / Raw data: TNF
# Protocol: Prior to NanoBiT Cell-Based Immunoassay, 50,000 cells were seeded in 160 µl of complete growth media per well of a 96-well plate and incubated overnight. The cells were checked under microscope and it was determined that 50,000 cells per well in 96-well plate is under 90% confluency for all cells tested. If necessary, the cell culture media were replaced with serum-free media after the cells were stably adherent on the plate and incubated overnight. To treat cells with activators or inhibitors, medium was changed to 30 µl of medium containing inhibitors. If activation of a specific pathway is needed, the cells were stimulated with 10 µl of medium containing activators. To lyse the cells, 10 µl of lysis buffer containing 0.1% digitonin diluted in 1X immunoassay buffer with protease and phosphatase inhibitors was added and the plates were mixed vigorously for 20 min. Then, 50 µl of an antibody mix containing two primary antibodies against the target protein and NanoBiT detecting antibodies (0.3 µl each per well), diluted in 1X immunoassay buffer was added to the lysates. The plates were incubated at 23 °C for 90 min, followed by the addition of 25 µl of Nano-Glo® reagent consisting of Nano-Glo® Luciferase Assay Substrate mixed with 1X immunoassay buffer. Luminescence was measured using a plate-reading luminometer.
# In all, 50,000 MCF-7 cells were seeded in 160 µl complete growth medium per well of a 96-well plate and incubated overnight. Half of the cells were treated with 50 ng per ml TNFα and half with vehicle. Cells were lysed as described above and a mixture of NanoBiT secondary antibodies with primary antibodies at the matrix concentrations described in Fig. 2a were added. After 90 min incubation, the Nano-Glo® reagent was added to the reactions as described above and luminescence was measured using a plate-reading luminometer.
# Single dose or dose response inhibitor treatments were performed prior to activation of the pathways as follows. For IκBα, the cells were treated in 30 µl medium with IKK16 or MG132 for 60 min before the addition of 10 µl of DMEM containing appropriate concentration of TNFα. To measure phosphorylation of AKT or STAT3, the corresponding NanoBiT immunoassays were developed with MCF-7 or A431 cells, respectively, according the same scheme used to develop the IκBα assay using the primary antibodies for AKT and STAT3 described in the reagents section. For the AKT assay, MCF-7 cells were incubated overnight in phenol-red free DMEM medium (Gibco #21063-029) without serum. Treatment with LY294002 was performed in 30 µl medium and cells were incubated for 60 min before the addition of 1 µM Insulin. To measure STAT3 phosphorylation, A431 cells were incubated overnight in DMEM medium without serum. […] After addition of the stimulators, the cells were incubated for additional times as follows. IκBα phosphorylation and degradation analyses required both time courses and single time points as described in figures. […] The NanoBiT immunoassay protocol was followed as described above.
# All 96-well assay plates were read using a GloMax® 96 Microplate Luminometer from Promega. The instrument was set to 0.5 s integration time. In order to obtain net change of signal, the reagent background values (signal from the well containing all reagent except primary antibodies) were subtracted from the sample values. To plot and analyze the data, Microsoft Excel and GraphPad Prism® Software were used. IC50 values were determined by using a nonlinear regression fit to a sigmoidal dose response (variable slope).
# [1] = IkB Ab #2 75 ng/ml, P-IkB Ab #1 300 ng/ml
# [2] = IkB Ab #2 75 ng/ml, P-IkB Ab #1 600 ng/ml
# [3] = IkB Ab #2 75 ng/ml, P-IkB Ab #1 1200 ng/ml
# [4] = IkB Ab #2 150 ng/ml, P-IkB Ab #1 75 ng/ml
# [5] = IkB Ab #2 150 ng/ml, P-IkB Ab #1 150 ng/ml
# [6] = IkB Ab #2 150 ng/ml, P-IkB Ab #1 300 ng/ml
# [7] = IkB Ab #2 150 ng/ml, P-IkB Ab #1 600 ng/ml
# [8] = IkB Ab #2 150 ng/ml, P-IkB Ab #1 1200 ng/ml
# [9] = IkB Ab #2 300 ng/ml, P-IkB Ab #1 75 ng/ml
# [10] = IkB Ab #2 300 ng/ml, P-IkB Ab #1 150 ng/ml
# [11] = IkB Ab #2 300 ng/ml, P-IkB Ab #1 300 ng/ml
# [12] = IkB Ab #2 300 ng/ml, P-IkB Ab #1 600 ng/ml
# [13] = IkB Ab #2 300 ng/ml, P-IkB Ab #1 1200 ng/ml
# [14] = IkB Ab #2 600 ng/ml, P-IkB Ab #1 75 ng/ml
# [15] = IkB Ab #2 600 ng/ml, P-IkB Ab #1 150 ng/ml
# [16] = IkB Ab #2 600 ng/ml, P-IkB Ab #1 300 ng/ml
# [17] = IkB Ab #2 600 ng/ml, P-IkB Ab #1 600 ng/ml
# [18] = IkB Ab #2 600 ng/ml, P-IkB Ab #1 1200 ng/ml
# [19] = IkB Ab #2 1200 ng/ml, P-IkB Ab #1 75 ng/ml
# [20] = IkB Ab #2 1200 ng/ml, P-IkB Ab #1 150 ng/ml
# [21] = IkB Ab #2 1200 ng/ml, P-IkB Ab #1 300 ng/ml
# [22] = IkB Ab #2 1200 ng/ml, P-IkB Ab #1 600 ng/ml
# [23] = IkB Ab #2 1200 ng/ml, P-IkB Ab #1 1200 ng/ml
substance,measurement,setting,value
TNFα,Subtract reagent background,"IkB Ab #2 75 ng/ml, P-IkB Ab #1 150 ng/ml",2170
same,Raw data,[1],21130
same,Subtract reagent background,[1],2610
same,Raw data,[2],21060
same,Subtract reagent background,[2],2540
same,Raw data,[3],19400
same,Subtract reagent background,[3],880
same,Raw data,[4],21700
same,Subtract reagent background,[4],3180
same,Raw data,[5],21690
same,Subtract reagent background,[5],3170
same,Raw data,[6],22220
same,Subtract reagent background,[6],3700
same,Raw data,[7],20830
same,Subtract reagent background,[7],2310
same,Raw data,[8],19240
same,Subtract reagent background,[8],720
same,Raw data,[9],22450
same,Subtract reagent background,[9],3930
same,Raw data,[10],22650
same,Subtract reagent background,[10],4130
same,Raw data,[11],23650
same,Subtract reagent background,[11],5130
same,Raw data,[12],20040
same,Subtract reagent background,[12],1520
same,Raw data,[13],19000
same,Subtract reagent background,[13],480
same,Raw data,[14],22640
same,Subtract reagent background,[14],4120
same,Raw data,[15],23720
same,Subtract reagent background,[15],5200
same,Raw data,[16],23520
same,Subtract reagent background,[16],5000
same,Raw data,[17],22360
same,Subtract reagent background,[17],3840
same,Raw data,[18],20110
same,Subtract reagent background,[18],1590
same,Raw data,[19],22600
same,Subtract reagent background,[19],4080
same,Raw data,[20],23950
same,Subtract reagent background,[20],5430
same,Raw data,[21],23940
same,Subtract reagent background,[21],5420
same,Raw data,[22],23180
same,Subtract reagent background,[22],4660
same,Raw data,[23],21820
same,Subtract reagent background,[23],3300
same,Fold change (TNF-treated /Non-treated),"IkB Ab #2 (Mouse) 75 ng/ml, P-IkB Ab #1 (Rabbit) 75 ng/ml",1.212
same,Fold change (TNF-treated /Non-treated),"IkB Ab #2 (Mouse) 75 ng/ml, P-IkB Ab #1 (Rabbit) 75 ng/ml, listed as TNF",1.2
same,Fold change (TNF-treated /Non-treated),"IkB Ab #2 (Mouse) 75 ng/ml, P-IkB Ab #1 (Rabbit) 150 ng/ml",1.09
same,Fold change (TNF-treated /Non-treated),"IkB Ab #2 (Mouse) 75 ng/ml, P-IkB Ab #1 (Rabbit) 150 ng/ml, listed as TNF",1.1
same,Fold change (TNF-treated /Non-treated),"IkB Ab #2 (Mouse) 75 ng/ml, P-IkB Ab #1 (Rabbit) 300 ng/ml",1.197
same,Fold change (TNF-treated /Non-treated),"IkB Ab #2 (Mouse) 75 ng/ml, P-IkB Ab #1 (Rabbit) 300 ng/ml, listed as TNF",1.2
same,Fold change (TNF-treated /Non-treated),"IkB Ab #2 (Mouse) 75 ng/ml, P-IkB Ab #1 (Rabbit) 600 ng/ml",1.104
same,Fold change (TNF-treated /Non-treated),"IkB Ab #2 (Mouse) 75 ng/ml, P-IkB Ab #1 (Rabbit) 1200 ng/ml",0.4356
same,Fold change (TNF-treated /Non-treated),"IkB Ab #2 (Mouse) 150 ng/ml, P-IkB Ab #1 (Rabbit) 150 ng/ml",1.447
same,Fold change (TNF-treated /Non-treated),"IkB Ab #2 (Mouse) 150 ng/ml, P-IkB Ab #1 (Rabbit) 150 ng/ml, listed as TNF",1.4
same,Fold change (TNF-treated /Non-treated),"IkB Ab #2 (Mouse) 150 ng/ml, P-IkB Ab #1 (Rabbit) 300 ng/ml",1.271
same,Fold change (TNF-treated /Non-treated),"IkB Ab #2 (Mouse) 150 ng/ml, P-IkB Ab #1 (Rabbit) 300 ng/ml, listed as TNF",1.3
same,Fold change (TNF-treated /Non-treated),"IkB Ab #2 (Mouse) 150 ng/ml, P-IkB Ab #1 (Rabbit) 600 ng/ml",0.8684
same,Fold change (TNF-treated /Non-treated),"IkB Ab #2 (Mouse) 150 ng/ml, P-IkB Ab #1 (Rabbit) 600 ng/ml, listed as TNF",0.9
same,Fold change (TNF-treated /Non-treated),"IkB Ab #2 (Mouse) 150 ng/ml, P-IkB Ab #1 (Rabbit) 1200 ng/ml",0.2618
same,Fold change (TNF-treated /Non-treated),"IkB Ab #2 (Mouse) 150 ng/ml, P-IkB Ab #1 (Rabbit) 1200 ng/ml, listed as TNF",0.262
same,Fold change (TNF-treated /Non-treated),"IkB Ab #2 (Mouse) 300 ng/ml, P-IkB Ab #1 (Rabbit) 150 ng/ml",1.886
same,Fold change (TNF-treated /Non-treated),"IkB Ab #2 (Mouse) 300 ng/ml, P-IkB Ab #1 (Rabbit) 150 ng/ml, listed as TNF",1.9
same,Fold change (TNF-treated /Non-treated),"IkB Ab #2 (Mouse) 300 ng/ml, P-IkB Ab #1 (Rabbit) 300 ng/ml",2.24
same,Fold change (TNF-treated /Non-treated),"IkB Ab #2 (Mouse) 300 ng/ml, P-IkB Ab #1 (Rabbit) 300 ng/ml, listed as TNF",2.2
same,Fold change (TNF-treated /Non-treated),"IkB Ab #2 (Mouse) 300 ng/ml, P-IkB Ab #1 (Rabbit) 600 ng/ml",1.197
same,Fold change (TNF-treated /Non-treated),"IkB Ab #2 (Mouse) 300 ng/ml, P-IkB Ab #1 (Rabbit) 600 ng/ml, listed as TNF",1.2
same,Fold change (TNF-treated /Non-treated),"IkB Ab #2 (Mouse) 300 ng/ml, P-IkB Ab #1 (Rabbit) 1200 ng/ml",0.3429
same,Fold change (TNF-treated /Non-treated),"IkB Ab #2 (Mouse) 300 ng/ml, P-IkB Ab #1 (Rabbit) 1200 ng/ml, listed as TNF",0.343
same,Fold change (TNF-treated /Non-treated),"IkB Ab #2 (Mouse) 600 ng/ml, P-IkB Ab #1 (Rabbit) 75 ng/ml",2.559
same,Fold change (TNF-treated /Non-treated),"IkB Ab #2 (Mouse) 600 ng/ml, P-IkB Ab #1 (Rabbit) 75 ng/ml, listed as TNF",2.6
same,Fold change (TNF-treated /Non-treated),"IkB Ab #2 (Mouse) 600 ng/ml, P-IkB Ab #1 (Rabbit) 150 ng/ml",2.826
same,Fold change (TNF-treated /Non-treated),"IkB Ab #2 (Mouse) 600 ng/ml, P-IkB Ab #1 (Rabbit) 150 ng/ml, listed as TNF",2.8
same,Fold change (TNF-treated /Non-treated),"IkB Ab #2 (Mouse) 600 ng/ml, P-IkB Ab #1 (Rabbit) 300 ng/ml",2.155
same,Fold change (TNF-treated /Non-treated),"IkB Ab #2 (Mouse) 600 ng/ml, P-IkB Ab #1 (Rabbit) 300 ng/ml, listed as TNF",2.2
same,Fold change (TNF-treated /Non-treated),"IkB Ab #2 (Mouse) 600 ng/ml, P-IkB Ab #1 (Rabbit) 600 ng/ml",2.11
same,Fold change (TNF-treated /Non-treated),"IkB Ab #2 (Mouse) 600 ng/ml, P-IkB Ab #1 (Rabbit) 600 ng/ml, listed as TNF",2.1
same,Fold change (TNF-treated /Non-treated),"IkB Ab #2 (Mouse) 600 ng/ml, P-IkB Ab #1 (Rabbit) 1200 ng/ml",0.8281
